Source: patent publication US20250367117A1, “VITAMIN C-ENCAPSULATED LIPOSOME AND PREPARATION METHOD THEREFOR” (Hankook Liposome Co., Ltd., priority 2022, published 2025)

Test: Bioavailability after oral administration: blood (serum) vitamin C concentration by HPLC
Assay type: in vivo
Conditions: male, SD rat, 10 ml(200 mg)/kg
Description: The experimental animals used were SD rats (Samtago BIO KOREA Co., Ltd.), which have anatomical and physiological characteristics similar to humans and have the advantage of being useful as a pharmacokinetic model. The SD rats were male, 7-week-old (240-260 g), and were raised at a temperature of 20-24° C. and a relative humidity of 40-70%, and general symptoms were observed once a day for 5 days before the test. Solid feed for experimental animals (Purina Feed®) was provided, and the rats were allowed to consume it freely. […] As a control group, food vitamin C (purity 99.9%) was used, and the weight was measured and dissolved in purified water to prepare it. […] After putting the test substance into a 3 ml syringe, the zonde for rat oral administration was combined, and the test substance was administrated into the rat. For blood collection, about 300 μl of blood was collected from the jugular vein of all subjects in each group using a disposable syringe (1 ml, 26G, BD Biosciences, USA) at the scheduled time after administration. The blood was placed in a clean, light-shielded 1.5 ml amber tube, allowed to coagulate for 30 minutes at room temperature, and then centrifuged to separate the serum. The oral administration time points were 0, 1, 2, 4, 6, 8, 10, 12, and 24 hours (total of 9 time points). For blood sample separation and analysis, the harvested whole blood was coagulated and centrifuged at 3,000 rpm for 10 minutes using a centrifuge (Micro17R, Hanil, KOR) to separate the serum. Each 100 μl×1 tube was placed in a 1.5 ml Amber tube labeled with the test type, animal number, and blood collection time and stored in an ultra-low temperature freezer (approximately −70° C.). When testing, the stored samples were thawed at room temperature and the blood concentration of vitamin C was analyzed using HPLC (Alliance e2695, Waters, USA). […] For sample processing and analysis, 70 μL of the sample was taken and placed in a microtube, 70 μL of metaphosphoric acid (0.1 g/mL in water) was added, and then mixed using a vortexer for 30 seconds. The mixture was centrifuged at 14,000 rpm for 10 minutes, and the supernatant was transferred to a vial and injected into the HPLC for analysis. Since vitamin C is an endogenous substance, it was used after serum dialysis.

O=C1O[C@H]([C@@H](O)CO)C(O)=C1O [vitamin C, ascorbic acid]
Cmax: 12000 ng/mL | Tmax: 7.67 h | AUC(0-t) (read-out: AUC0-24 of vitamin C): 234 µg·h/mL | half-life (read-out: T1/2 of vitamin C (converted)): 27.8 h
